Measured values reported in patent US11395829B2, “Inhibitors of metallo-beta-lactamases produced by multidrug-resistant bacteria” (MYONGJI UNIVERSITY INDUSTRY AND ACADEMIA COOPERATION …, priority 2019, dated 2022).
Like-named read-outs stand apart in the source and are kept apart here.

How the values were obtained:
Assay type in all cases: biochemical
CphA = CphA (Aeromonas hydrophila, UniProt P26918); experiment: CphA inhibition assay with nitrocefin as substrate; settings: for IC50 of CphA relative to that for DCPBA: fold lower than DCPBA
Chain of CphA (P26918 28-254): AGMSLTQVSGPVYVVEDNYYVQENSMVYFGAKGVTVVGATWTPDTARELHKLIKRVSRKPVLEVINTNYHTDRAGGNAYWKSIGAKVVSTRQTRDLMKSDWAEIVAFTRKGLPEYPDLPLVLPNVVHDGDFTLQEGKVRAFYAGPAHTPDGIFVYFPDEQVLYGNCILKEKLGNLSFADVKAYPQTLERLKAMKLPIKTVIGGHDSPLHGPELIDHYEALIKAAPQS
Excerpt: (§1) The blaNDM-1 gene (GenBank ID: FN396876) from K. pneumoniae clinical isolate, blaIMP-1 gene (GenBank ID: S71932) from Acinetobacter baumannii clinical isolate, and blaVIM-2 gene (GenBank ID: AF191564) from Citrobacter freundii clinical isolate were cloned after PCR amplification with primer pairs (Table 3) and then sequenced. Those three clinical isolates were collected from a university hospital in the Republic of Korea. Three DNA templates encoding blaGIM-1 gene (GenBank ID: AJ620678), blacphA gene (GenBank ID: X57102), and blaGOB-1 gene (GenBank ID: AF090141), which are codon optimized for E. coli, were synthesized and purchased from IDT (Integrated DNA Technologies, Coralville, Iowa, USA). The DNA templates were amplified by PCR using suitable primer pairs (Table 3). The amplified DNA and pET-30a(+) vector (Novagen, Madison, Wis., USA) were double-digested with NdeI and XhoI, with digested DNA then ligated into the digested vector. After verifying the DNA sequences, the plasmids, pET-30a(+)/His6-blaNDM-1, pET-30a(+)/His6-blaIMP-1, pET-30a(+)/His6-blaVIM-2, pET-30a(+)/His6-blaGIM-1, pET-30a(+)/His6-blacphA, and pET-30a(+)/His6-blaGOB-1 were individually transformed into E. coli BL21 (DE3) cells. Each of the histidine-tagged proteins, NDM-1, IMP-1, VIM-2, GIM-1, CphA, and GOB-1 were prepared as previously described (Park, et al., J. Glob. Antimicrob. Resist., 14, 302-305 (2018)).
(§2) To investigate the inhibitory effects of novel compounds (DCPBA, ACP-DCPBA, and CHP-DCPBA) against four clinically-important subclass B1 MBLs (NDM-1, IMP-1, VIM-2, and GIM-1), subclass B2 MBL (CphA), and subclass B3 MBL (GOB-1), the IC50 values for them were determined (Table 4). Compounds (DCPBA, ACP-DCPBA, and CHP-DCPBA) were dissolved in 100% DMSO at 10 mM. Activities of MBLs were determined by monitoring the change of absorbance at 482 nm. Up to 5% DMSO, no influence on the enzyme activities of MBLs was observed. Each enzyme (NDM-1, 263 nM; IMP-1, 891 nM; VIM-2, 81 nM; GIM-1, 662 nM; CphA, 157 nM; GOB-1, 2.69 μM) was mixed with 100 μM nitrocefin after a 5 minute pre-incubation with compounds (DCPBA, ACP-DCPBA, and CHP-DCPBA). The first 120 s of each reaction was used to measure initial rates. Data were evaluated using Microsoft Excel. Reaction progress at every concentration of DCPBA (ACP-DCPBA or CHP-DCPBA) was measured in triplicates.

GOB-1 = GOB-1 (Elizabethkingia meningoseptica, UniProt Q9RB00); experiment: GOB-1 inhibition assay with nitrocefin as substrate; settings: Subclass B3 MBL, enzyme 2.69 μM, 100 μM nitrocefin, 5 minute pre-incubation
Chain of GOB-1 (Q9RB00 entry or part of it): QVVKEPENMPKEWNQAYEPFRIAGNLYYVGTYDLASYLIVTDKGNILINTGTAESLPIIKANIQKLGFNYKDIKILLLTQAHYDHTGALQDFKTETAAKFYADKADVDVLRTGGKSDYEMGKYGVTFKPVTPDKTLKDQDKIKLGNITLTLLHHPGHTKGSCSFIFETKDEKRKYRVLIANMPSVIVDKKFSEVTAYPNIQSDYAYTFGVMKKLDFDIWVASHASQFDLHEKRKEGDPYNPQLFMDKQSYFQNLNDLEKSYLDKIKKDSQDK
Excerpt: as §1
as §2, with “Each enzyme (NDM-1, 263 nM; IMP-1, 891 nM; VIM-2, 81 nM; GIM-1, 662 nM; CphA, 157 nM; GOB-1, 2.69 μM) was mixed with 100 μM nitrocefin after a 5 minute pre-incubation with compounds (DCPBA, ACP-DCPBA, and CHP-DCPBA). The first 120 s of each reaction was used to measure initial rates.” left out

GIM-1 = GIM-1 (Pseudomonas aeruginosa, UniProt Q704V1); experiment: GIM-1 inhibition assay with nitrocefin as substrate
Chain of GIM-1 (Q704V1 19-250): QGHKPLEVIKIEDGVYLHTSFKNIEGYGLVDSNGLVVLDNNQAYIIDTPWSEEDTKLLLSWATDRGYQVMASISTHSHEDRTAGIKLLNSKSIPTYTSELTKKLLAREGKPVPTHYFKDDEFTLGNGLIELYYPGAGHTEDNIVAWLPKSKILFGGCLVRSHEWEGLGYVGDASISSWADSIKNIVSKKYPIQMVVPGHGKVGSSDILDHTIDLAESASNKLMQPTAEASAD
Excerpt: as §1
as §2, with “Each enzyme (NDM-1, 263 nM; IMP-1, 891 nM; VIM-2, 81 nM; GIM-1, 662 nM; CphA, 157 nM; GOB-1, 2.69 μM) was mixed with 100 μM nitrocefin after a 5 minute pre-incubation with compounds (DCPBA, ACP-DCPBA, and CHP-DCPBA). The first 120 s of each reaction was used to measure initial rates.” left out

IMP-1 = IMP-1 (Serratia marcescens, UniProt P52699); experiment: IMP-1 inhibition assay with nitrocefin as substrate; settings: Subclass B1 MBL, enzyme 891 nM, 100 μM nitrocefin, 5 minute pre-incubation
Chain of IMP-1 (P52699 21-246 limits assumed): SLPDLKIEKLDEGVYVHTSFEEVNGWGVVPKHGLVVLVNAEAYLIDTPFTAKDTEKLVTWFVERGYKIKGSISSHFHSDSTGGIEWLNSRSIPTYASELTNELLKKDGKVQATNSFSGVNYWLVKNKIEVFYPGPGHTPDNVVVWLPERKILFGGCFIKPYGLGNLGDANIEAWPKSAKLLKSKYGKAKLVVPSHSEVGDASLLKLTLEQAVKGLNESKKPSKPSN
Excerpt: as §1
as §2, with “Each enzyme (NDM-1, 263 nM; IMP-1, 891 nM; VIM-2, 81 nM; GIM-1, 662 nM; CphA, 157 nM; GOB-1, 2.69 μM) was mixed with 100 μM nitrocefin after a 5 minute pre-incubation with compounds (DCPBA, ACP-DCPBA, and CHP-DCPBA). The first 120 s of each reaction was used to measure initial rates.” left out

VIM-2 = VIM-2 (Pseudomonas aeruginosa, UniProt Q9K2N0); experiment: VIM-2 inhibition assay with nitrocefin as substrate
Excerpt: as §1
as §2, with “Each enzyme (NDM-1, 263 nM; IMP-1, 891 nM; VIM-2, 81 nM; GIM-1, 662 nM; CphA, 157 nM; GOB-1, 2.69 μM) was mixed with 100 μM nitrocefin after a 5 minute pre-incubation with compounds (DCPBA, ACP-DCPBA, and CHP-DCPBA). The first 120 s of each reaction was used to measure initial rates.” left out

NDM-1 = NDM-1 (Klebsiella pneumoniae, UniProt C7C422); experiment: NDM-1 inhibition assay with nitrocefin as substrate
Chain of NDM-1 (C7C422 30-270 limits assumed, looked up): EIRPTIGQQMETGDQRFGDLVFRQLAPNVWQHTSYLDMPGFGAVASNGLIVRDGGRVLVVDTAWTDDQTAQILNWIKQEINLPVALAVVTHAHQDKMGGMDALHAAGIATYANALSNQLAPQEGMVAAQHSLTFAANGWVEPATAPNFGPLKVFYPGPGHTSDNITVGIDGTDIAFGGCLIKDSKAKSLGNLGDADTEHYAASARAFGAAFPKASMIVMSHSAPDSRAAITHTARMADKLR
Description: The screened seven compounds were dissolved in 100% DMSO at 10 mM. More diluted stocks were prepared as necessary. NDM-1 activity was determined by monitoring the change of absorbance at 482 nm using the characteristic molecular extinction coefficient (Δε482=15,900 M^−1 cm^−1) of nitrocefin (NCF) (Oxoid, Hampshire, UK) by a Shimazu UV-1650PC spectrophotometer. Up to 5% DMSO, no influence on the enzyme activities of MBLs was observed. The assays were conducted in 50 mM MES (pH 7.0) containing an enzyme (263 nM), 100 μM ZnCl2, and 100 μg/mL bovine serum albumin. After 5 min of pre-incubation of the purified enzyme and inhibitor at 30° C., the enzymatic reaction was started by adding nitrocefin (100 μM). Residual velocities were determined after 5 minutes. The first 120 s of each reaction was used to measure initial rates. Data were evaluated using Microsoft Excel. Concentration-dependent inhibition of NDM-1 was measured using different concentrations of seven compounds resulting from two-fold dilution series. Reaction progress at every concentration of seven compounds was measured in triplicates. IC50 values were calculated using 4-parameter log fits using XL Fit curve fitting software (www.idbs.com) for Excel using the following equation: […]
where y is the remaining enzyme activity (in %) and x is the corresponding concentration. The fitted IC50 parameter is defined as the concentration giving a response half way between the fitted top (B) and bottom (A) of the curve. […]
To investigate the inhibitory effects of novel compounds (DCPBA, ACP-DCPBA, and CHP-DCPBA) against four clinically-important subclass B1 MBLs (NDM-1, IMP-1, VIM-2, and GIM-1), subclass B2 MBL (CphA), and subclass B3 MBL (GOB-1), the IC50 values for them were determined (Table 4). […] Activities of MBLs were determined by monitoring the change of absorbance at 482 nm. […] Data were evaluated using Microsoft Excel. Reaction progress at every concentration of DCPBA (ACP-DCPBA or CHP-DCPBA) was measured in triplicates.

[1] = Subclass B1 MBL, enzyme 263 nM, 100 μM nitrocefin, 5 minute pre-incubation, read-out: IC50 NDM-1

Row | Structure (SMILES) | IC50 (CphA; Subclass B2 MBL, enzyme 157 nM, 100 μM nitrocefin, 5 minute pre-incubation, read-out: IC50 CphA) [µM] | IC50 of CphA relative to that for DCPBA (CphA) | IC50 (GOB-1) [µM] | IC50 (GIM-1; Subclass B1 MBL, enzyme 662 nM, 100 μM nitrocefin, 5 minute pre-incubation, read-out: IC50 GIM-1) [µM] | IC50 (IMP-1) [µM] | IC50 (VIM-2) [µM] | IC50 (NDM-1; [1]) [µM] | IC50 (CphA) [µM] | IC50 (GIM-1) [µM] | IC50 (NDM-1; NDM-1 263 nM, nitrocefin 100 μM, 50 mM MES pH 7.0, 5 min pre-incubation at 30° C., read-out: IC50 values on NDM-1 of the screened compounds) [µM]
1 | OB(O)c1cc(Cl)c(Oc2ccc(Cl)cc2O)c(Cl)c1 [CHP-DCPBA, (3,5-dichloro-4-(4-chloro-2-hydroxyphenoxy)phenyl)boronic acid] | 80.81 ± 0.01 | six-fold lower | 468.5 ± 0.01 | 81.35 ± 0.03 | 468.3 ± 0.01 | 15.15 ± 0.01 | 37.77 ± 0.01 |  |  | 
2 | OB(O)c1cc(Cl)cc(Cl)c1 [Compound 1, 3,5-Dichlorophenylboronic Acid] |  |  | 798.9 ± 0.02 |  | 738.88 ± 0.01 | 27.33 ± 0.01 |  | 530.87 ± 0.02 | 144.64 ± 0.01 | 79.9
3 | Nc1ccc(Oc2c(Cl)cc(B(O)O)cc2Cl)cc1Cl [ACP-DCPBA, (4-(4-amino-3-chlorophenoxy)-3,5-dichlorophenyl)boronic Acid] |  | six-fold lower | 790.24 ± 0.02 |  | 738.41 ± 0.01 | 22.78 ± 0.01 | 78.78 ± 0.01 | 90.19 ± 0.01 | 144.64 ± 0.01 | 
